Biological target: Chorismate synthase (Escherichia coli) (UniProt P12008)
Experiment: Compound was evaluated for the binding affinity towards Escherichia coli chorismate synthase

Chorismate synthase (Escherichia coli), sequence (P12008 whole entry, looked up): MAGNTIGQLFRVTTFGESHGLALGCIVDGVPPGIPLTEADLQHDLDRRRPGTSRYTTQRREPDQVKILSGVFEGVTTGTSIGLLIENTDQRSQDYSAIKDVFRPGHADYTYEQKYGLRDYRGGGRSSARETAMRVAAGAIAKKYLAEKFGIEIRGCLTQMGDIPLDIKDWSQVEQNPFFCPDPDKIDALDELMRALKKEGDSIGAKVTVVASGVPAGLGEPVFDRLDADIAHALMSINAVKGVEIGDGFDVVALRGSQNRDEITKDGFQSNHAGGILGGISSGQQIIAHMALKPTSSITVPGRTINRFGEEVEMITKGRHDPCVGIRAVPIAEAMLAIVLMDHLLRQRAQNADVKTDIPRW

Kd: > 20 µM
SMILES: Cc1cc2nc3c(=O)[nH]c(=O)nc-3n(C[C@H](O)[C@H](O)[C@H](O)COP(=O)(O)O)c2cc1C [E101a]
